Structures can show the parent of a compound that is named as a salt. One block for each molecule: values may come before it.
Assays:
[1] = system: anesthetized dogs; assay: renal vasodilator activity test in anesthetized dogs (infusion); assay type: in vivo, dog; settings: for renal vasodilator activity: primary test period of the renal anesthetized dog screening protocol
From the text: Representative specific results are included in the examples.

[2] = system: spontaneously hypertensive rats; assay: spontaneously hypertensive rat (SHR) diuretic naturetic assay; assay type: in vivo; settings: 25 and 50 mg/kg i.p.
Method: In this test, male, Okamato-Aoki strain, spontaneously hypertensive rats, aged 16-19 weeks, are fasted, then, the following afternoon, the first dose of test compound is administered, along with a 25 ml/kg p.o. load of normal saline. The animals are, then, placed in metabolism cages and urine collected for three hours for analysis. Indirect systolic blood pressure and heart rate are measured by a tail-cuff. An identical second dose of test compound is administered. After two hours, blood pressure and heart rate are again tested. The test compound is usually administered p.o. or i.p. in saline with 0.02% ascorbic acid.

[3] = system: angiotensin coverting enzyme; assay: angiotensin converting enzyme inhibiting activity; assay type: in vivo; settings: at 10 times its renally effective dose
[4] = system: dopamine-sensitive adenylate cyclase system; assay: dopamine-sensitive adenylate cyclase system in vitro; assay type: biochemical
[5] = system: toad bladder; assay: toad bladder anti-ADH assay
[6] = bradycardic effect (heart rate), test not stated; settings: in vivo
[7] = two anesthetized dogs, 3, 30 and 300 μg/kg/min

SMILES: O=C(O)CN1CCC[C@H]1C(=O)N[C@@H](Cc1ccccc1)C(=O)N1CCC[C@H]1C(=O)O [Example 2 sulfate, N-carboxymethyl-L-prolyl-L-phenylalanyl-L-proline]
renal blood flow (qualitative) ([1]; 30 and 300 μg/kg/min): increased renal blood flow

SMILES: NCCc1ccc(O)c(O)c1 [dopamine]
RVR-ED15 ([1]; secondary test in three dogs, i.v.): 3.5 µg/kg

SMILES: NCCCC[C@H](NC(=O)[C@@H]1CCCN1CC(=O)O)C(=O)N1CCC[C@H]1C(=O)O [N-carboxymethyl-L-prolyl-L-lysyl-L-proline]
renal vasodilator activity [1]: inactive

SMILES: CC(C(=O)O)N1CCC[C@H]1C(=O)NCCC(=O)N1CCC[C@H]1C(=O)O (stereo partly drawn) [N-(1-carboxyethyl)-L-prolyl-β-alanyl-L-proline]
renal vasodilator activity [1]: inactive

SMILES: O=C(O)CN1CCC[C@H]1C(=O)NCC(=O)N1CCC[C@H]1C(=O)O [N-carboxymethyl-prolyl-glycyl-L-proline]
renal vasodilator activity [1]: inactive

stimulation or antagonism of dopamine-sensitive adenylate cyclase [4]: did not stimulate or antagonize
SMILES: O=C(O)CN1CCC[C@H]1C(=O)NCCC(=O)N1CCC[C@H]1C(=O)O.O=S(=O)(O)O [Example 3, N-carboxymethyl-L-prolyl-β-alanyl-L-proline sulfate]
Na+, K+ or urine excretion (qualitative) [2]: significant increase
angiotensin converting enzyme inhibiting activity [3]: did not have angiotensin coverting enzyme inhibiting activity
anti-ADH activity [5]: nor was it active
renal blood flow (qualitative) [1, 7]: increased renal blood flow
renal vascular resistance (qualitative) [1, 7]: decreased renal vascular resistance
bradycardic effect [6]: weak bradycardic effect

— US4456594A, “N-Carboxyalkylproline-containing tripeptides” (SmithKline Beckman Corporation, priority 1982, dated 1984)
